The test system of this experiment is open-chest canines. Briefly: Dobutamine infusion followed by vagal (sinus node fat pad) stimulation, hemodynamics in open-chest canines. The format is in vivo. How it is done: A study was done to assess the effects of dobutamine administration followed by vagal stimulation on sinus tachycardia. The study was done using 4 open-chest canines. Dobutamine was infused at a rate of 2.5-7.5 μg/kg/min to increase the cardiac contractility and the sinus rate at least 30 beats per minute. Vagal nerve stimulation was applied at the epicardial sinus node fat pad, located at the junction of the right pulmonary vein and the right atrium. Vagal stimulation was done with an electrical lead comprising a silicone plate with four platinum electrodes imbedded therein. Rectangular current pulses were delivered with intensity in the range of 1 to 5 mA, duration of pulse in the range of 0.1 ms to 1 ms, and frequency of repetition of the pulses between 20-30 Hz. To avoid tissue polarization, the polarity of consecutive pulses was alternated. Vagal nerve stimulation was administered to slow the sinus rate to the control level. Hemodynamic data was collected and compared in canines during control, during administration of dobutamine, and during both dobutamine and vagal stimulation.

[1] abbreviates: dobutamine + vagal stimulation at sinus node fat pad.
Where [2] appears, read: dobutamine infused 2.5-7.5 μg/kg/min, no vagal stimulation.

Each structure is given as a SMILES string.

Here are results for 1 compound from patent US20100004704A1, “METHOD FOR TREATING A CARDIAC RHYTHM DISTURBANCE” (The Cleveland Clinic Foundation, priority 2008, published 2010).

Turning to `CC(CCc1ccc(O)cc1)NCCc1ccc(O)c(O)c1` (stereo not drawn) [Dobutamine, dobutamine], the RR interval (dobutamine 2.5-7.5 μg/kg/min + vagal stimulation at sinus node fat pad (1-5 mA, 0.1-1 ms, 20-30 Hz)) came to 560 ± 16 ms. Also, under setting [1], the “+dp/dt” value is on record as 2980 ± 602 mmHg/s, the CO came to 3.6 ± 0.8 L/min, the DBP stood at 74 ± 7 mmHg and the LVEDP is recorded as 7.6 ± 1.5 mmHg. Also, under setting [1], the LVSP is on record as 120 ± 16 mmHg, the SBP is given as 126 ± 12 mmHg and the “−dp/dt” value is −1897 ± −313 mmHg/s. Further, the “heart rate, systolic blood pressure (SBP), diastolic blood pressure (DBP), left ventricular systolic pressure (LVSP) (and its ±dp/dt), and cardiac output (CO)” value (dobutamine administration vs. control, open-chest canines) was “significantly increased”. Under “dobutamine infused 2.5-7.5 μg/kg/min, 4 open-chest canines, no vagal stimulation”, this compound returned an RR interval of 421 ± 36 ms. Further, under setting [2], the “+dp/dt” value was 3607 ± 861 mmHg/s, the CO was 4.2 ± 0.9 L/min, the DBP is listed as 84 ± 7 mmHg and the LVEDP came to 6.9 ± 2.2 mmHg. In addition, under setting [2], the LVSP stood at 130 ± 13 mmHg, the SBP amounted to 135 ± 18 mmHg and the “−dp/dt” value is on record as −2259 ± −495 mmHg/s. Further, the sinus rate increase result (vagal stimulation combined with dobutamine, all other hemodynamic benefits preserved) is “eliminated sinus rate increase”.
